Reference: patent publication US20140275257A1, “N-ACETYL CYSTEINE COMPOSITIONS IN THE TREATMENT OF SYSTEMIC LUPUS ERYTHEMATOSUS” (Foundation for the State University of New York, priority 2013, published 2014)

Test system: SLE patients
Assay: ADHD Self-Report Scale (ASRS) in SLE patients treated with NAC
Assay type: in vivo, human
Procedure: The clinical trial design, eligibility criteria, randomization, blinding, monitoring of safety, tolerance and efficacy on NAC in patients with SLE was as described in Example 1, approved by the Food and Drug Administration (IND No: 101,320; clinicaltrials.gov identifier: NCT00775476). As an addendum to the Example 1 study, ASRS was evaluated as an exploratory outcome in 24 SLE patients randomized to receive orally either placebo or NAC in one of two treatment arms: 1,200 mg or 2,400 mg twice daily for three months. 12 patients were enrolled per dosing group, 9 received NAC while 3 received placebo. Due to missing data, 6 patients enrolled in the placebo arm and 8 patients enrolled into each of the two NAC treatment arms could be evaluated.
The ASRS is an 18-item scale that is used to assess the current status of the 18 DSM-IV symptoms of ADHD in adults. (Kessler, R. C. et al., “The World Health Organization Adult ADHD Self-Report Scale (ASRS): a short screening scale for use in the general population,” Psychol. Med., 35(2): 245-256 (2005)). Symptoms are rated on a frequency basis: 0=never, 1=rarely, 2=sometimes, 3=often, and 4=very often. Nine items assess inattention and nine assess hyperactivity-impulsivity. The 9 inattentive symptoms are summed to create the ASRS A subscale; the 9 hyperactive-impulsive symptoms are summed to compute the ASRS B subscale. These two scales are summed to compute the total score. For all scales, higher scores indicate more symptoms. The scale has high concurrent validity with a rater-administered ADHD symptom scale. (Adler, L. A. et al., “Validity of Pilot Adult ADHD Self-Report Scale (ASRS) to Rate Adult ADHD Symptoms,” Ann Clin. Psychiatry 18(3): 145-148 (2006)). As described in Example 1, SLE disease activity was assessed by using the British Isles Lupus Assessment Group (BILAG) (Isenberg, D. A. et al., “BILAG 2004. Development and initial validation of an updated version of the British Isles Lupus Assessment Group's disease activity index for patients with systemic lupus erythematosus,” Rheumatology, 44(7): 902-906 (2005)) and Systemic Lupus Erythematosus Disease Activity Index (SLEDAI) (Hochberg, M. C., “Updating the American College of Rheumatology revised criteria for the classification of systemic lupus erythematosus,” Arth. Rheum., 40(9): 1725 (1997)). Fatigue was estimated using the Fatigue Assessment Scale (FAS) (Michielsen, H. J. et al., “Psychometric qualities of a brief self-rated fatigue measure: The Fatigue Assessment Scale,” J. Psychosom. Res., 54(4): 345-352 (2003)).
Overall clinical effectiveness of NAC relative to placebo was analyzed with multilevel modeling as implemented in the STATA routine XTMIXED (from StataCorp, College Station, Tex.), with the three nested levels being drug group, subject within drug group and study visit within subject. All models included fixed effects for drug group, study visit and the drug group by study visit interaction along with random intercepts at each design level. […] Two-tailed paired t-test was used to assess the effects of placebo and of each and all NAC doses on clinical indices recorded on visits 2-5 relative to visit 1; p<0.05 was considered significant. Patients and controls were compared with two-tailed unpaired t-test. Correlations and t-test were performed with Prism (GraphPad, San Diego, Calif.).

[1] = NAC Dose 3, end of 3-month treatment

CC(=O)N[C@@H](CS)C(=O)O [NAC, N-acetyl-L-cysteine]
cognitive/inattentive ASRS A scores (NAC Dose 2 (2.4 g/day), z=−3.31, p=0.001): reduced | hyperactivity/impulsive components of ASRS scores (ASRS B scores) (NAC Dose 2 and 3, alone or combined (data not shown)): not affected | ASRS Total scores (NAC Dose 3 (4.8 g/day), after 2 and 3 months of treatment): diminished | cognitive/inattentive ASRS A scores (NAC Dose 3 (4.8 g/day), z=−4.04, p<0.0001): reduced | standardized mean difference effect size (Cohen's D), ASRS A scores [1]: 0.71 | standardized mean difference effect size (Cohen's D), ASRS B scores [1]: 0.44 | standardized mean difference effect size (Cohen's D), ASRS Total scores [1]: 0.72 | ASRS Total scores (NAC Doses 2 and 3 combined, after 3 months): reduced | reduction in ASRS Total scores relative to placebo (multilevel modeling) (NAC Doses 2 and 3 combined, XTMIXED z=−2.09, p=0.037): greater | cognitive/inattentive ASRS A scores (NAC Doses 2 and 3 combined, z=−3.41, p=0.001): reduced
